From patent publication US20060287319A1, “Anti-viral compositions comprising heterocyclic substituted phenyl furans and related compounds” (priority 2005, published 2006)
Read-outs that look alike come from different tables or passages of the source.

Legend:
[1] = test system: HIV-1IIIB infected H9 cells (H9/HIV-1IIIB) and MT-2 cells; test: HIV-1 mediated cell-cell fusion (dye transfer assay); assay type: cell-based; conditions: H9/HIV-1IIIB with MT-2 cells; read-out: EC50 (μM) (M ± SD) for inhibition of Cell fusion
Experimental: Inhibition of cell-cell fusion. A dye transfer assay was used for detection of HIV-1 mediated cell fusion as previously described (11,25,26). H9/HIV-1IIIB cells were labeled with a fluorescent reagent, Calcein-AM (Molecular Probes, Inc., Eugene, Oreg.) and then incubated with MT-2 cells (ratio=1:5) in 96-well plates at 37° C. for 2 hrs in the presence or absence of compounds tested. The fused and unfused Cacein-labeled HIV-1-infected cells were counted under an inverted fluorescence microscope (Zeiss, Germany) with an eyepiece micrometer disc. The percentage of inhibition of cell fusion and the IC50 values were calculated as previously described (11).

[2] = test system: MT-2 cells
Experimental: Detection of in vitro cytotoxicity. The in vitro cytotoxicity of compounds for MT-2 cells was measured by a colorimetric method using XTT tetrazolium dye as previously described (21). Briefly, 100 μl of a compound at a graded concentration was added to equal volume of cells (5×10^5/ml) in a well of 96-well plates. After incubation at 37° C. for 4 days, XTT (1 mg/ml; […]; PolySciences, Inc., Warrington, Pa.) was added. Four hours later, the soluble intracellular formazan was quantitated colorimetrically at 450 nm with a reference at 570 nm.

[3] = test system: HIV-1 IIIB; conditions: for EC50: read-out: EC50 (μM) (M ± SD) for inhibition of p24, HIV-1 IIIB, MT-2 cells
Experimental: Assessment of anti-HIV-1 infectivity. The inhibitory activity of compounds on infection by laboratory-adapted HIV-1 strains was determined as previously described (34). […] For the time-of-addition assay, compounds were added at various time post-infection. Then the culture supernatants were removed and fresh media were added. On the fourth day post-infection, 100 μl of culture supernatants were collected from each well, mixed with equal volumes of 5% Triton X-100 and assayed for p24 antigen, which was quantitated by ELISA (23). Briefly, the wells of polystyrene plates (Immulon 1B, Dynex Technology, Chantilly, Va.) were coated with HIV immunoglobulin (HIVIG), which was prepared from plasma of HIV-seropositive donors with high neutralizing titers against HIV-1IIIB as previously described (36) in 0.085 M carbonate-bicarbonate buffer (pH 9.6) at 4° C. overnight, followed by washes with PBS-T buffer (0.01M PBS containing 0.05% Tween-20) and blocking with PBS containing 1% dry fat-free milk (Bio-Rad Inc., Hercules, Calif.). Virus lysates were added to the wells and incubated at 37° C. for 1 h. […] Reactions were terminated by addition of 1N H2SO4. […] Recombinant protein p24 (US Biological, Swampscott, Mass.) was included for establishing standard dose response curve.

[4] = test system: HIV-1 IIIB; test: HIV-1-mediated cytopathic effect (CPE); assay type: cell-based; conditions: read-out: EC50 (μM) (M ± SD) for inhibition of CPE
Description: We thus purchased these compounds and tested their inhibitory activity on: 1) HIV-1 replication (p24 production); 2) HIV-1-mediated cytopathic effect (CPE); and 3) HIV-1 Env-induced cell-cell fusion; and their cytotoxicity to MT-2 cells.

[5] = read-out: Cytotoxicity CC50 (μM) (M ± SD), MT-2 cells

Row | Structure (SMILES) | EC50 [1] | CC50 [2, 5] | EC50 [3] | EC50 [4] | SI (CC50/EC50) ([3]; selectivity index) | CC50 [2] | SI (CC50/EC50) [3]
1 | O=C(O)c1cc(-c2ccc(/C=C3\SC(=O)N(c4cccc(Cl)c4)C3=O)o2)ccc1Cl [NB139] | > 100 µM | 239 ± 14.7 µM | > 100 µM | > 100 µM | – | – | –
2 | O=C(O)c1cc(-c2ccc(/C=C3\SC(=O)N(c4ccc(Cl)cc4)C3=O)o2)ccc1Cl [NB140] | > 100 µM | 126 ± 19.2 µM | 12.1 ± 2.73 µM | 63.4 ± 1.28 µM | 10.41 | – | –
3 | Cc1ccc(N2C(=O)/C(=C/c3ccc(-c4cccc(C(=O)O)c4)o3)SC2=S)c(C)c1 [NB146] | 1.08 µM | 33.8 ± 4.44 µM | 0.299 ± 0.046 µM | 1.77 ± 0.368 µM | 103.15 | – | –
4 | O=C(O)c1cccc(-c2ccc(/C=C3\SC(=S)N(c4cccc(F)c4)C3=O)o2)c1 [NB147] | > 100 µM | 92.3 ± 5.62 µM | 10.4 ± 0.84 µM | > 100 µM | 8.85 | – | –
5 | COc1ccccc1N1C(=O)/C(=C/c2ccc(-c3cccc(C(=O)O)c3)o2)SC1=S [NB148] | 34.9 µM | – | 2.65 µM | – | – | > 368 µM | >266.67
6 | Cc1cccc(N2C(=O)/C(=C/c3ccc(-c4cccc(C(=O)O)c4)o3)SC2=S)c1 [NB150] | 0.56 ± 0.05 µM | 38.7 ± 5.85 µM | 0.308 ± 0.047 µM | 0.403 ± 0.119 µM | 125.69 | – | –
7 | CN1C(=O)/C(=C/c2ccc(-c3cccc(C(=O)O)c3)o2)SC1=S [NB151] | 43.7 µM | – | 0.667 ± 0.174 µM | 3.86 ± 0.58 µM | – | 125 ± 14.7 µM | 187.17
8 | COc1ccc(N2C(=O)/C(=C/c3ccc(-c4cccc(C(=O)O)c4)o3)SC2=S)cc1 [NB156] | 2.66 µM | > 399 µM | 0.779 ± 0.092 µM | 3.16 ± 1.35 µM | >470.59 | – | –
9 | O=C(O)c1cccc(-c2ccc(/C=C3\SC(=O)N(c4ccccc4)C3=O)o2)c1 [NB158] | > 100 µM | > 102 µM | > 100 µM | > 100 µM | – | – | –
10 | O=C(O)c1cccc(-c2ccc(/C=C3\SC(=O)N(c4ccc(Cl)cc4)C3=O)o2)c1 [NB160] | > 100 µM | > 376 µM | > 100 µM | > 100 µM | – | – | –
11 | O=C(O)CN1C(=O)/C(=C/c2ccc(-c3cccc(C(=O)O)c3)o2)SC1=S [NB180] | > 100 µM | – | > 100 µM | > 100 µM | – | > 411 µM | –
12 | O=C(O)c1cccc(-c2ccc(/C=C3\SC(=S)N(C4CCCCC4)C3=O)o2)c1 [NB181] | > 100 µM | > 387 µM | 0.218 ± 0.024 µM | 0.605 ± 0.194 µM | >1777.78 | – | –
13 | O=C(O)c1cccc(-c2ccc(/C=C3\SC(=S)N(Cc4ccccc4)C3=O)o2)c1 [NB182] | 1.68 ± 0.142 µM | – | 0.83 ± 0.024 µM | 2.25 ± 1.14 µM | – | – | –
14 | C=CCN1C(=O)/C(=C/c2ccc(-c3cccc(C(=O)O)c3)o2)SC1=S [NB183] | 16.8 ± 0.457 µM | – | 0.323 ± 0.081 µM | 0.753 ± 0.081 µM | – | 174 ± 16.2 µM | 537.83
15 | O=C1NC(=S)S/C1=C\c1ccc(-c2cccc(C(=O)O)c2)o1 [NB184] | > 100 µM | – | > 100 µM | > 100 µM | – | > 483 µM | >28.93
16 | O=C1NC(=S)S/C1=C\c1ccc(-c2ccc(Cl)c(C(=O)O)c2)o1 [NB185] | > 100 µM | – | 76.9 ± 3.52 µM | 50.3 ± 4.09 µM | – | > 437 µM | >5.68

Row | Structure (SMILES) | EC50 [1] | CC50 [2, 5] | EC50 [3] | EC50 [4] | SI (CC50/EC50) ([3]; selectivity index) | CC50 [2] | SI (CC50/EC50) [3]
17 | CN1C(=O)S/C(=C\c2ccc(-c3cc(C(=O)O)ccc3Cl)o2)C1=O [NB186] | > 100 µM | – | > 100 µM | > 100 µM | – | > 440 µM | –
18 | Cc1ccc(C(=O)O)cc1-c1ccc(/C=C2\SC(=O)N(c3ccccc3)C2=O)o1 [NB187] | > 100 µM | 363 ± 40.1 µM | > 100 µM | > 100 µM | – | – | –
19 | Cc1ccc(C(=O)O)cc1-c1ccc(/C=C2\SC(=S)NC2=O)o1 [NB188] | > 100 µM | – | > 100 µM | > 100 µM | – | 197 ± 13 µM | –
20 | C=CCN1C(=O)/C(=C/c2ccc(-c3cccc(C(=O)O)c3C)o2)SC1=S [NB189] | 4.33 ± 0.078 µM | – | 0.984 ± 0.155 µM | 2.28 ± 0.389 µM | – | > 414 µM | >421.05
21 | O=C1NC(=S)S/C1=C\c1ccc(-c2cc(C(=O)O)ccc2Cl)o1 [NB190] | > 100 µM | – | > 100 µM | > 100 µM | – | > 437 µM | –
22 | O=C(O)c1cc(-c2ccc(/C=C3\SC(=O)N(Cc4ccc(F)cc4)C3=O)o2)ccc1Cl [NB191] | > 100 µM | > 349 µM | > 100 µM | > 100 µM | – | – | –
23 | O=C(O)c1cc(-c2ccc(/C=C3\SC(=O)N(Cc4ccccc4)C3=O)o2)ccc1Cl [NB192] | > 100 µM | – | > 100 µM | > 100 µM | – | – | –
24 | CC(C)CN1C(=O)S/C(=C\c2ccc(-c3ccc(Cl)c(C(=O)O)c3)o2)C1=O [NB193] | > 100 µM | – | > 100 µM | > 100 µM | – | > 394 µM | –
25 | Cc1ccc(NC(=O)CN2C(=O)S/C(=C\c3ccc(-c4cccc(C(=O)O)c4)o3)C2=O)cc1 [NB194] | > 100 µM | – | > 100 µM | > 100 µM | – | 207 ± 4.4 µM | –
26 | Cc1c(C(=O)O)cccc1-c1ccc(/C=C2\SC(=O)N(CC(=O)Nc3ccccc3F)C2=O)o1 [NB195] | > 100 µM | 154 ± 6.93 µM | > 100 µM | > 100 µM | – | – | –
27 | Cc1ccc(NC(=O)CN2C(=O)S/C(=C\c3ccc(-c4cccc(C(=O)O)c4C)o3)C2=O)cc1 [NB196] | > 100 µM | – | > 100 µM | > 100 µM | – | > 336 µM | –
28 | Cc1ccc(NC(=O)CN2C(=O)S/C(=C\c3ccc(-c4cc(C(=O)O)ccc4Cl)o3)C2=O)cc1 [NB197] | > 100 µM | – | > 100 µM | > 100 µM | – | > 341 µM | –
29 | O=C(O)c1cc(-c2ccc(/C=C3\SC(=S)N(Cc4ccccc4)C3=O)o2)ccc1Cl [NB217] | 2.3 ± 0.131 µM | – | 0.767 ± 0.219 µM | 2.37 ± 0.657 µM | – | – | –
30 | C=CCN1C(=O)/C(=C/c2ccc(-c3cc(C(=O)O)cc(C(=O)O)c3)o2)SC1=S [NB225] | – | – | > 100 µM | > 100 µM | – | > 386 µM | –
31 | O=C(O)c1cccc(-c2ccc(/C=C3\SC(=S)N(Cc4ccco4)C3=O)o2)c1 [NB238] | – | – | – | – | – | – | >14.57
